Reference: US10875876B2, “Cyclized sulfamoylarylamide derivatives and the use thereof as medicaments for the treatment of hepatitis B” (priority 2015, dated 2020)
Where two headings read alike, the source gives them in different places.

Experiments:
HBV = experiment: anti HBV activity, HepG2.117 cell line, intracellular HBV DNA by realtime PCR; format: cell-based; conditions: Hepatitis B virus, HepG2.117, 72 h
How it was run: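 HepG2.117 cells, a Tet-off line that replicates HBV without doxycycline, were induced and then treated in duplicate with serially diluted compound. After 3 days, intracellular HBV DNA was quantified by real-time PCR with an HBV-specific primer set and probe.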

[1] = Cytotoxicity in HepG2 cells, Resazurin assay; conditions: human, HepG2 cells, TOX-HepG2-4 d CC50 (μM), HepG2 cells incubated for 4 days, viability by Resazurin assay
[2] = HepG2.117 cell line (Tet-off), 3 days of treatment, intracellular HBV DNA quantified by realtime PCR, read-out: HBV-AVE-HepG2.117 EC50

## CC1CCc2c(cn(C)c2C(=O)Nc2ccc(F)c(F)c2)S(=O)(=O)N1 (centres unmarked)
other
  melting point: 229.8 °C

## CCC(O)[C@H]1COc2c(cn(C)c2C(=O)Nc2ccc(F)c(F)c2)S(=O)(=O)N1 (some centres unmarked)
other
  melting point: 214.6 °C

## Cc1sc2c(c1C(=O)Nc1ccc(F)c(F)c1)OCC(C)NS2(=O)=O (centres unmarked)
other
  melting point: 221.5 °C

## Cn1cc2c(c1C(=O)Nc1ccc(F)c(C#N)c1)OC[C@](C)(Cc1ccccc1)NS2(=O)=O [Compound 156, (3S)-3-benzyl-N-(3-cyano-4-fluoro-phenyl)-3,7-dimethyl-1,1-dioxo-2,4-dihydropyrrolo[3,4-b][1,4,5]oxathiazepine-6-carboxamide]
HBV; [2]
  EC50: 0.009 µM
[1]
  CC50 at 4 days: > 25 µM

## C[C@H](O)[C@H]1CCc2c(cn(C)c2C(=O)Nc2ccc(F)c(C#N)c2F)S(=O)(=O)N1 [Compound 159, (3R)—N-(3-cyano-2,4-difluoro-phenyl)-3-[(1S)-1-hydroxyethyl]-7-methyl-1,1-dioxo-2,3,4,5-tetrahydropyrrolo[3,4-f]thiazepine-6-carboxamide]
HBV; [2]
  EC50: 0.014 µM
[1]
  CC50 at 4 days: > 25 µM

## C[C@H]1CCc2c(cn(C)c2C(=O)Nc2ccnc(C(F)F)c2)S(=O)(=O)N1 [Compound 165, (3S)—N-[2-(difluoromethyl)-4-pyridyl]-3,7-dimethyl-1,1-dioxo-2,3,4,5-tetrahydropyrrolo[3,4-f]thiazepine-6-carboxamide]
HBV; [2]
  EC50: 0.068 µM
[1]
  CC50 at 4 days: > 25 µM

## C[C@H]1CCc2c(cn(C)c2C(=O)Nc2ccnc(Cl)c2)S(=O)(=O)N1 [Compound 166, (3S)—N-(2-chloro-4-pyridyl)-3,7-dimethyl-1,1-dioxo-2,3,4,5-tetrahydropyrrolo[3,4-f]thiazepine-6-carboxamide]
HBV; [2]
  EC50: 0.056 µM
[1]
  CC50 at 4 days: > 25 µM

## C[C@H](O)[C@H]1C=Cc2c(cn(C)c2C(=O)Nc2ccc(F)c(C#N)c2F)S(=O)(=O)N1 [Compound 178, (3R)—N-(3-cyano-2,4-difluoro-phenyl)-3-[(1S)-1-hydroxyethyl]-7-methyl-1,1-dioxo-2,3-dihydropyrrolo[3,4-f]thiazepine-6-carboxamide]
HBV; [2]
  EC50: 0.016 µM
[1]
  CC50 at 4 days: > 25 µM

## Cn1cc2c(c1C(=O)Nc1ccc(F)c(F)c1)OCC(C(O)c1ccncc1)NS2(=O)=O (centres unmarked) [Compound 183, N-(3,4-difluorophenyl)-3-[hydroxy(4-pyridyl)methyl]-7-methyl-1,1-dioxo-3,4-dihydro-2H-pyrrolo[3,4-b][1,4,5]oxathiazepine-6-carboxamide]
HBV; [2]
  EC50: 0.002 µM
[1]
  CC50 at 4 days: > 25 µM

## Cn1cc2c(c1C(=O)Nc1ccc(F)c(C(F)F)c1)CC[C@H](CO)NS2(=O)=O [Compound 184, (3R)—N-[3-(difluoromethyl)-4-fluoro-phenyl]-3-(hydroxymethyl)-7-methyl-1,1-dioxo-2,3,4,5-tetrahydropyrrolo[3,4-f]thiazepine-6-carboxamide]
HBV; [2]
  EC50: 0.02 µM
[1]
  CC50 at 4 days: > 25 µM

## Cn1cc2c(c1C(=O)Nc1ccc(F)c(C#N)c1F)CCC(C(C)(C)O)NS2(=O)=O (centres unmarked) [Compound 185, N-(3-cyano-2,4-difluoro-phenyl)-3-(1-hydroxy-1-methyl-ethyl)-7-methyl-1,1-dioxo-2,3,4,5-tetrahydropyrrolo[3,4-f]thiazepine-6-carboxamide]
HBV; [2]
  EC50: 0.041 µM
[1]
  CC50 at 4 days: > 25 µM

## C[C@H](O)[C@H]1C=Cc2c(cn(C)c2C(=O)Nc2ccc(F)c(C(F)F)c2F)S(=O)(=O)N1 [Compound 186, (3R)—N-[3-(difluoromethyl)-2,4-difluoro-phenyl]-3-[(1S)-1-hydroxyethyl]-7-methyl-1,1-dioxo-2,3-dihydropyrrolo[3,4-f]thiazepine-6-carboxamide]
HBV; [2]
  EC50: 0.011 µM
[1]
  CC50 at 4 days: > 25 µM

## Cn1cc2c(c1C(=O)Nc1ccc(F)c(C#N)c1)C=CC(C(F)F)NS2(=O)=O (centres unmarked) [Compound 189, N-(3-cyano-4-fluoro-phenyl)-3-(difluoromethyl)-7-methyl-1,1-dioxo-2,3-dihydropyrrolo[3,4-f]thiazepine-6-carboxamide]
HBV; [2]
  EC50: 0.11 µM
[1]
  CC50 at 4 days: > 25 µM

## Cc1cc(NC(=O)c2c3c(cn2C)S(=O)(=O)N[C@@H](C(C)(C)O)CO3)ccc1F [Compound 195, (3R)—N-(4-fluoro-3-methyl-phenyl)-3-(1-hydroxy-1-methyl-ethyl)-7-methyl-1,1-dioxo-3,4-dihydro-2H-pyrrolo[3,4-b][1,4,5]oxathiazepine-6-carboxamide]
HBV; [2]
  EC50: 0.007 µM
[1]
  CC50 at 4 days: > 25 µM

## Cn1cc2c(c1C(=O)Nc1ccc(F)c(F)c1)OC[C@@H](C1(O)CC1)NS2(=O)=O [Compound 196, (3S)—N-(3,4-difluorophenyl)-3-(1-hydroxycyclopropyl)-7-methyl-1,1-dioxo-3,4-dihydro-2H-pyrrolo[3,4-b][1,4,5]oxathiazepine-6-carboxamide]
HBV; [2]
  EC50: 0.065 µM
[1]
  CC50 at 4 days: > 25 µM

## Cn1cc2c(c1C(=O)Nc1ccc(F)c(F)c1)OCC(C)(Cc1ccc(Cl)nc1)NS2(=O)=O (centres unmarked) [Compound 197, 3-[(6-chloro-3-pyridyl)methyl]-N-(3,4-difluorophenyl)-3,7-dimethyl-1,1-dioxo-2,4-dihydropyrrolo[3,4-b][1,4,5]oxathiazepine-6-carboxamide]
HBV; [2]
  EC50: 0.011 µM
[1]
  CC50 at 4 days: > 25 µM

## Cn1cc2c(c1C(=O)Nc1ccc(F)c(Cl)c1)OCC(C)(Cc1ccc(Cl)nc1)NS2(=O)=O (centres unmarked) [Compound 198, N-(3-chloro-4-fluoro-phenyl)-3-[(6-chloro-3-pyridyl)methyl]-3,7-dimethyl-1,1-dioxo-2,4-dihydropyrrolo[3,4-b][1,4,5]oxathiazepine-6-carboxamide]
HBV; [2]
  EC50: 0.011 µM
[1]
  CC50 at 4 days: > 25 µM

## Cc1cc(NC(=O)c2c3c(cn2C)S(=O)(=O)N[C@@H]([C@H](C)O)CO3)ccc1F [Compound 200, (3R)—N-(4-fluoro-3-methyl-phenyl)-3-[(1S)-1-hydroxyethyl]-7-methyl-1,1-dioxo-3,4-dihydro-2H-pyrrolo[3,4-b][1,4,5]oxathiazepine-6-carboxamide]
HBV; [2]
  EC50: 0.084 µM
[1]
  CC50 at 4 days: > 25 µM

## Cn1cc2c(c1C(=O)Nc1ccc(F)c(F)c1)CCC(CO)(CO)NS2(=O)=O [Compound 201, N-(3,4-difluorophenyl)-3,3-bis(hydroxymethyl)-7-methyl-1,1-dioxo-4,5-dihydro-2H-pyrrolo[3,4-f]thiazepine-6-carboxamide]
HBV; [2]
  EC50: 0.11 µM
[1]
  CC50 at 4 days: > 25 µM

## COCC1(CO)CCc2c(cn(C)c2C(=O)Nc2ccc(F)c(F)c2)S(=O)(=O)N1 (centres unmarked) [Compound 202, N-(3,4-difluorophenyl)-3-(hydroxymethyl)-3-(methoxymethyl)-7-methyl-1,1-dioxo-4,5-dihydro-2H-pyrrolo[3,4-f]thiazepine-6-carboxamide]
HBV; [2]
  EC50: 0.025 µM
[1]
  CC50 at 4 days: > 25 µM

## CC#CCC1COc2c(cn(C)c2C(=O)Nc2ccc(F)c(F)c2)S(=O)(=O)N1 (centres unmarked) [Compound 205, 3-but-2-ynyl-N-(3,4-difluorophenyl)-7-methyl-1,1-dioxo-3,4-dihydro-2H-pyrrolo[3,4-b][1,4,5]oxathiazepine-6-carboxamide]
HBV; read-out: HBV-AVE-HepG2.117 EC50 (μM)
  EC50: 0.05 µM
[1]
  CC50 at 4 days: > 25 µM

## Cn1cc2c(c1C(=O)Nc1ccc(F)c(F)c1)OCC1(CCN(Cc3ccccc3)C1)NS2(=O)=O (centres unmarked) [Compound 216, 1′-benzyl-N-(3,4-difluorophenyl)-7-methyl-1,1-dioxo-spiro[2,4-dihydropyrrolo[3,4-b][1,4,5]oxathiazepine-3,3′-pyrrolidine]-6-carboxamide]
HBV; [2]
  EC50: 0.034 µM
[1]
  CC50 at 4 days: > 25 µM

## C[C@@H]1NS(=O)(=O)c2cn(C)c(C(=O)Nc3ccc(F)c(F)c3)c2O[C@H]1C [compound 229]
HBV; [2]
  EC50: > 0.5 µM
[1]
  CC50 at 4 days: > 25 µM

## C[C@@H]1Oc2c(cn(C)c2C(=O)Nc2ccc(F)c(F)c2)S(=O)(=O)N[C@@H]1C [compound 230]
HBV; [2]
  EC50: > 0.5 µM
[1]
  CC50 at 4 days: > 25 µM

## C[C@H]1NS(=O)(=O)c2cn(C)c(C(=O)Nc3ccc(F)c(F)c3)c2O[C@@H]1C [compound 231]
HBV; [2]
  EC50: > 0.5 µM
[1]
  CC50 at 4 days: > 25 µM

## Cc1ccc(NC(=O)c2c(F)ccc3c2OC[C@H](C(C)C)NS3(=O)=O)cc1F [compound 232]
HBV; [2]
  EC50: > 0.5 µM
[1]
  CC50 at 4 days: > 25 µM

## C[C@@H]1Oc2c(cn(C)c2C(=O)Nc2ccnc(C(F)F)c2)S(=O)(=O)N[C@@H]1CO [compound 233]
HBV; [2]
  EC50: > 0.5 µM
[1]
  CC50 at 4 days: > 25 µM

## C[C@@H]1Oc2c(cn(C)c2C(=O)Nc2ccc(F)c(C(F)F)c2)S(=O)(=O)N[C@@H]1CO [compound 234]
HBV; [2]
  EC50: > 0.5 µM
[1]
  CC50 at 4 days: > 25 µM

## C=C1c2c(cn(C)c2C(=O)Nc2ccc(F)c(F)c2)S(=O)(=O)NC1C(C)C (centres unmarked) [compound 237]
HBV; [2]
  EC50: > 0.5 µM
[1]
  CC50 at 4 days: > 25 µM

## C=C1c2c(cn(C)c2C(=O)Nc2ccc(F)c(C(F)F)c2)S(=O)(=O)NC1C(C)C (centres unmarked) [compound 238]
HBV; [2]
  EC50: 0.077 µM
[1]
  CC50 at 4 days: > 25 µM

## CC(C)[C@H]1Oc2c(cn(C)c2C(=O)Nc2ccc(F)c(C#N)c2)S(=O)(=O)N[C@@H]1CO [compound 239]
HBV; [2]
  EC50: > 0.5 µM
[1]
  CC50 at 4 days: > 25 µM

## CC(C)[C@H]1Oc2c(cn(C)c2C(=O)Nc2ccc(F)c(F)c2)S(=O)(=O)N[C@@H]1CO [compound 240]
HBV; [2]
  EC50: > 0.25 µM
[1]
  CC50 at 4 days: > 25 µM

## CC(C)[C@@H]1Oc2c(cn(C)c2C(=O)Nc2ccc(F)c(F)c2)S(=O)(=O)N[C@H]1CO [compound 241]
HBV; [2]
  EC50: > 0.25 µM
[1]
  CC50 at 4 days: > 25 µM

## Cn1cc2c(c1C(=O)Nc1ccc(F)c(F)c1)OCC(C(=O)O)NS2(=O)=O (centres unmarked) [compound 242]
HBV; [2]
  EC50: > 0.13 µM
[1]
  CC50 at 4 days: > 25 µM

## COC(=O)C1COc2c(cn(C)c2C(=O)Nc2ccc(F)c(F)c2)S(=O)(=O)N1 (centres unmarked) [compound 243]
HBV; [2]
  EC50: > 0.5 µM
[1]
  CC50 at 4 days: > 25 µM

## CC1CCc2c(nn(C)c2C(=O)Nc2ccc(F)c(F)c2)S(=O)(=O)N1 (centres unmarked) [compound 246]
HBV; [2]
  EC50: > 0.13 µM
[1]
  CC50 at 4 days: > 25 µM

## Cn1cc2c(c1C(=O)Nc1ccnc(C(F)F)c1)C=CC(C(F)F)NS2(=O)=O (centres unmarked) [compound 247]
HBV; [2]
  EC50: > 0.13 µM
[1]
  CC50 at 4 days: > 25 µM
